{"source": "patent US10183022B2", "about": "“Pharmaceutical composition for treating ulcerative colitis” (EA Pharma Co., Ltd., priority 2014, dated 2019)", "key": {"[1]": {"tested_on": "ulcerative colitis patients in an active stage", "assay": "Clinical study, 960 mg orally 3 times a day for 8 weeks: subscore for stool frequency of Mayo score", "type": "in vivo, human", "procedure": "(§1) The compound of Example 1 or the compound of Comparative Example 1 was orally administered after meals 3 times a day. The number of the given tablets was 8 per administration (i.e., the amount of the compound (1) of Example 1 administered was 960 mg per administration). The administration period was 8 weeks. The compounds were administered until the timing after the breakfast on the day before the assessment day at Week 8.\n[Investigation Timings: Weeks 0, 2, 4, and 8 (or Discontinuation Time)]\nBased on the contents described in the symptom-recording diaries and so on, the investigators or sub-investigators investigated stool frequencies in 3 days immediately before each assessment day. Note that when the endoscopic examination on the large intestine was conducted, the investigation days were set to be the closest three days excluding the day of the endoscopic examination on the large intestine, the following day, and if a pre-treatment was performed for the endoscopic examination on the large intestine, the pre-treatment day.\nThe investigators or sub-investigators investigated the stool frequency per day before the primary disease appeared, which served as a “normal frequency.” An average value (rounded to the nearest whole number) of the stool frequencies of the investigated three days was compared with the “normal frequency,” and scored according to the following criteria."}, "[2]": {"tested_on": "ulcerative colitis patients in an active stage", "assay": "Clinical study, 960 mg orally 3 times a day for 8 weeks: subscore for physician's global assessment of Mayo score", "type": "in vivo, human", "procedure": "as §1\n(4) Physician's Global Assessment [Investigation Timings: Weeks 0, 2, 4, and 8 (or Discontinuation Time)]\nThe investigators or sub-investigators conducted a medical interview with the subjects (for abdominal discomfort, systemic state, investigator's finding, subject's impression, and so forth), and investigated the state on each assessment day.\nThe investigators or sub-investigators scored the physician's global assessment according to the following criteria with reference to the other three assessment criteria (stool frequency, bloody stool, and mucosal finding), as well as the abdominal discomfort, systemic state, investigator's finding, subject's impression, and so forth. Note that, on the days of the assessment performed without an endoscope, no mucosal finding was considered in scoring the physician's global assessment."}}}
{"compound": "COC(=O)[C@H](Cc1ccc(-n2c(=O)c3cc(N(C)C)ccc3n(C)c2=O)cc1)NC(=O)c1c(Cl)cccc1Cl", "note": "[Example 1, methyl(2S)-2-(2,6-dichlorobenzamide)-3-{4-[6-(dimethylamino)-1-methyl-2,4-dioxo-1,4-dihydroquinazolin-3(2H)-yl]phenyl}propanoate]", "values": [{"measurement": "Number of cases, cross tabulation of subscore for stool frequency", "setting": "[1]; Week 8 score 0, Week 0 score 0", "value": 2}, {"measurement": "Number of cases, cross tabulation of subscore for stool frequency", "setting": "[1]; Week 8 score 0, Week 0 score 1", "value": 3}, {"measurement": "Number of cases, cross tabulation of subscore for stool frequency", "setting": "[1]; Week 8 score 0, Week 0 score 2", "value": 4}, {"measurement": "Number of cases, cross tabulation of subscore for stool frequency", "setting": "[1]; Week 8 score 0, Week 0 score 3", "value": 2}, {"measurement": "Number of cases, cross tabulation of subscore for stool frequency", "setting": "[1]; Week 8 score 1, Week 0 score 0", "value": 0}, {"measurement": "Number of cases, cross tabulation of subscore for stool frequency", "setting": "[1]; Week 8 score 1, Week 0 score 1", "value": 5}, {"measurement": "Number of cases, cross tabulation of subscore for stool frequency", "setting": "[1]; Week 8 score 1, Week 0 score 2", "value": 11}, {"measurement": "Number of cases, cross tabulation of subscore for stool frequency", "setting": "[1]; Week 8 score 1, Week 0 score 3", "value": 7}, {"measurement": "Number of cases, cross tabulation of subscore for stool frequency", "setting": "[1]; Week 8 score 2, Week 0 score 0", "value": 0}, {"measurement": "Number of cases, cross tabulation of subscore for stool frequency", "setting": "[1]; Week 8 score 2, Week 0 score 1", "value": 1}, {"measurement": "Number of cases, cross tabulation of subscore for stool frequency", "setting": "[1]; Week 8 score 2, Week 0 score 2", "value": 5}, {"measurement": "Number of cases, cross tabulation of subscore for stool frequency", "setting": "[1]; Week 8 score 2, Week 0 score 3", "value": 3}, {"measurement": "Number of cases, cross tabulation of subscore for stool frequency", "setting": "[1]; Week 8 score 3, Week 0 score 0", "value": 0}, {"measurement": "Number of cases, cross tabulation of subscore for stool frequency", "setting": "[1]; Week 8 score 3, Week 0 score 1", "value": 0}, {"measurement": "Number of cases, cross tabulation of subscore for stool frequency", "setting": "[1]; Week 8 score 3, Week 0 score 2", "value": 1}, {"measurement": "Number of cases, cross tabulation of subscore for stool frequency", "setting": "[1]; Week 8 score 3, Week 0 score 3", "value": 7}, {"measurement": "Number of cases, cross tabulation of subscore for physician's global assessment", "setting": "[2]; Week 2 score 0, Week 0 score 0", "value": 0}, {"measurement": "Number of cases, cross tabulation of subscore for physician's global assessment", "setting": "[2]; Week 2 score 0, Week 0 score 1", "value": 0}, {"measurement": "Number of cases, cross tabulation of subscore for physician's global assessment", "setting": "[2]; Week 2 score 0, Week 0 score 2", "value": 3}, {"measurement": "Number of cases, cross tabulation of subscore for physician's global assessment", "setting": "[2]; Week 2 score 0, Week 0 score 3", "value": 0}, {"measurement": "Number of cases, cross tabulation of subscore for physician's global assessment", "setting": "[2]; Week 2 score 1, Week 0 score 0", "value": 0}, {"measurement": "Number of cases, cross tabulation of subscore for physician's global assessment", "setting": "[2]; Week 2 score 1, Week 0 score 1", "value": 3}, {"measurement": "Number of cases, cross tabulation of subscore for physician's global assessment", "setting": "[2]; Week 2 score 1, Week 0 score 2", "value": 19}, {"measurement": "Number of cases, cross tabulation of subscore for physician's global assessment", "setting": "[2]; Week 2 score 1, Week 0 score 3", "value": 0}, {"measurement": "Number of cases, cross tabulation of subscore for physician's global assessment", "setting": "[2]; Week 2 score 2, Week 0 score 0", "value": 0}, {"measurement": "Number of cases, cross tabulation of subscore for physician's global assessment", "setting": "[2]; Week 2 score 2, Week 0 score 1", "value": 0}, {"measurement": "Number of cases, cross tabulation of subscore for physician's global assessment", "setting": "[2]; Week 2 score 2, Week 0 score 2", "value": 26}, {"measurement": "Number of cases, cross tabulation of subscore for physician's global assessment", "setting": "[2]; Week 2 score 2, Week 0 score 3", "value": 0}, {"measurement": "Number of cases, cross tabulation of subscore for physician's global assessment", "setting": "[2]; Week 2 score 3, Week 0 score 0", "value": 0}, {"measurement": "Number of cases, cross tabulation of subscore for physician's global assessment", "setting": "[2]; Week 2 score 3, Week 0 score 1", "value": 0}, {"measurement": "Number of cases, cross tabulation of subscore for physician's global assessment", "setting": "[2]; Week 2 score 3, Week 0 score 2", "value": 0}, {"measurement": "Number of cases, cross tabulation of subscore for physician's global assessment", "setting": "[2]; Week 2 score 3, Week 0 score 3", "value": 0}, {"measurement": "Number of cases, cross tabulation of subscore for physician's global assessment", "setting": "[2]; Week 4 score 0, Week 0 score 0", "value": 0}, {"measurement": "Number of cases, cross tabulation of subscore for physician's global assessment", "setting": "[2]; Week 4 score 0, Week 0 score 1", "value": 0}, {"measurement": "Number of cases, cross tabulation of subscore for physician's global assessment", "setting": "[2]; Week 4 score 0, Week 0 score 2", "value": 7}, {"measurement": "Number of cases, cross tabulation of subscore for physician's global assessment", "setting": "[2]; Week 4 score 0, Week 0 score 3", "value": 0}, {"measurement": "Number of cases, cross tabulation of subscore for physician's global assessment", "setting": "[2]; Week 4 score 1, Week 0 score 0", "value": 0}, {"measurement": "Number of cases, cross tabulation of subscore for physician's global assessment", "setting": "[2]; Week 4 score 1, Week 0 score 1", "value": 3}, {"measurement": "Number of cases, cross tabulation of subscore for physician's global assessment", "setting": "[2]; Week 4 score 1, Week 0 score 2", "value": 23}, {"measurement": "Number of cases, cross tabulation of subscore for physician's global assessment", "setting": "[2]; Week 4 score 1, Week 0 score 3", "value": 0}, {"measurement": "Number of cases, cross tabulation of subscore for physician's global assessment", "setting": "[2]; Week 4 score 2, Week 0 score 0", "value": 0}, {"measurement": "Number of cases, cross tabulation of subscore for physician's global assessment", "setting": "[2]; Week 4 score 2, Week 0 score 1", "value": 0}, {"measurement": "Number of cases, cross tabulation of subscore for physician's global assessment", "setting": "[2]; Week 4 score 2, Week 0 score 2", "value": 18}, {"measurement": "Number of cases, cross tabulation of subscore for physician's global assessment", "setting": "[2]; Week 4 score 2, Week 0 score 3", "value": 0}, {"measurement": "Number of cases, cross tabulation of subscore for physician's global assessment", "setting": "[2]; Week 4 score 3, Week 0 score 0", "value": 0}, {"measurement": "Number of cases, cross tabulation of subscore for physician's global assessment", "setting": "[2]; Week 4 score 3, Week 0 score 1", "value": 0}, {"measurement": "Number of cases, cross tabulation of subscore for physician's global assessment", "setting": "[2]; Week 4 score 3, Week 0 score 2", "value": 0}, {"measurement": "Number of cases, cross tabulation of subscore for physician's global assessment", "setting": "[2]; Week 4 score 3, Week 0 score 3", "value": 0}, {"measurement": "Number of cases, cross tabulation of subscore for physician's global assessment", "setting": "[2]; Week 8 score 0, Week 0 score 0", "value": 0}, {"measurement": "Number of cases, cross tabulation of subscore for physician's global assessment", "setting": "[2]; Week 8 score 0, Week 0 score 1", "value": 1}, {"measurement": "Number of cases, cross tabulation of subscore for physician's global assessment", "setting": "[2]; Week 8 score 0, Week 0 score 2", "value": 6}, {"measurement": "Number of cases, cross tabulation of subscore for physician's global assessment", "setting": "[2]; Week 8 score 0, Week 0 score 3", "value": 0}, {"measurement": "Number of cases, cross tabulation of subscore for physician's global assessment", "setting": "[2]; Week 8 score 1, Week 0 score 0", "value": 0}, {"measurement": "Number of cases, cross tabulation of subscore for physician's global assessment", "setting": "[2]; Week 8 score 1, Week 0 score 1", "value": 2}, {"measurement": "Number of cases, cross tabulation of subscore for physician's global assessment", "setting": "[2]; Week 8 score 1, Week 0 score 2", "value": 28}, {"measurement": "Number of cases, cross tabulation of subscore for physician's global assessment", "setting": "[2]; Week 8 score 1, Week 0 score 3", "value": 0}, {"measurement": "Number of cases, cross tabulation of subscore for physician's global assessment", "setting": "[2]; Week 8 score 2, Week 0 score 0", "value": 0}, {"measurement": "Number of cases, cross tabulation of subscore for physician's global assessment", "setting": "[2]; Week 8 score 2, Week 0 score 1", "value": 0}, {"measurement": "Number of cases, cross tabulation of subscore for physician's global assessment", "setting": "[2]; Week 8 score 2, Week 0 score 2", "value": 14}, {"measurement": "Number of cases, cross tabulation of subscore for physician's global assessment", "setting": "[2]; Week 8 score 2, Week 0 score 3", "value": 0}, {"measurement": "Number of cases, cross tabulation of subscore for physician's global assessment", "setting": "[2]; Week 8 score 3, Week 0 score 0", "value": 0}, {"measurement": "Number of cases, cross tabulation of subscore for physician's global assessment", "setting": "[2]; Week 8 score 3, Week 0 score 1", "value": 0}, {"measurement": "Number of cases, cross tabulation of subscore for physician's global assessment", "setting": "[2]; Week 8 score 3, Week 0 score 2", "value": 0}, {"measurement": "Number of cases, cross tabulation of subscore for physician's global assessment", "setting": "[2]; Week 8 score 3, Week 0 score 3", "value": 0}]}
